Test results from PMC7614367, “Itraconazole inhibits endothelial cell migration by disrupting inositol pyrophosphate-dependent focal adhesion dynamics and cytoskeletal remodeling” (Biomedicine & Pharmacotherapy, 2023).

Key:
FAK (GST-FAK, flag-FAK) [1] = target: T1, FAK (GST-FAK, flag-FAK) (Homo sapiens, UniProt Q05397); assay: bead pull-down of GST-FAK by flag-FAK, western blot; format: binding; details: CF2 (10 μM) competing with 5-InsP7 (5 μM)
T1 construct: gene PTK2; full-length FAK, GST- or flag-tagged, produced in HEK293 cells; tags kept; endogenous HUVEC protein also pulled down
T1 sequence (Q05397 2-1052): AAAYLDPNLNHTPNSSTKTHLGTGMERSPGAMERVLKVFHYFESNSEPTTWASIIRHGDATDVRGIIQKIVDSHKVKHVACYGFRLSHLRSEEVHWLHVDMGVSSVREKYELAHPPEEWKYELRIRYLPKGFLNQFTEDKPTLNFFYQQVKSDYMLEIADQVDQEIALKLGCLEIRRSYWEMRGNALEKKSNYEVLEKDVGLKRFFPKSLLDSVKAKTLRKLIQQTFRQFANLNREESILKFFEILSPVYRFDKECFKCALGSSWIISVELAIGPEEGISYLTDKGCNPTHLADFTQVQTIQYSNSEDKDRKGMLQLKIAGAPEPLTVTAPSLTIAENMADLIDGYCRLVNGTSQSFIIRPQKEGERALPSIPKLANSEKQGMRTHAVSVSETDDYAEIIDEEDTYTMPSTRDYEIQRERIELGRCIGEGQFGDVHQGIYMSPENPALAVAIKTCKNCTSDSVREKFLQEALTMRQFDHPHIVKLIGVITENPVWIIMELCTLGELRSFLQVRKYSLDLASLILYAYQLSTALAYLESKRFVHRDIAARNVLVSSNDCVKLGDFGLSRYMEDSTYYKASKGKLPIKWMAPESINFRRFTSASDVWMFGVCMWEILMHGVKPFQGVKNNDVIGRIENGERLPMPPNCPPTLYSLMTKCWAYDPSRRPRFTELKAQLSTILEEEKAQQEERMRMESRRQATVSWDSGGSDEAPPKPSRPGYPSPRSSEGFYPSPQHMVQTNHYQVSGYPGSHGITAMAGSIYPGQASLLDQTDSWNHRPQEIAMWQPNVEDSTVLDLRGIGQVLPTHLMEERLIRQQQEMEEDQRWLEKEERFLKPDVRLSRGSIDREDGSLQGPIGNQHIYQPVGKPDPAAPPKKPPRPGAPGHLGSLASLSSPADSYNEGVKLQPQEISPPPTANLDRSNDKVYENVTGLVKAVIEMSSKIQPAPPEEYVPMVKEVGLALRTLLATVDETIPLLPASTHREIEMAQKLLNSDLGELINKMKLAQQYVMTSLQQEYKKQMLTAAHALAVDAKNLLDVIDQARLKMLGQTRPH

endogenous FAK (MEF) = target: T2, endogenous FAK (MEF) (Mus musculus, UniProt P34152); assay: affinity resin pull-down from cell lysate, western blot; format: biochemical; details: immobilised 5-PCP-InsP5 resin
T2 construct: gene Ptk2; endogenous full-length FAK in lysates of WT and IP6K1 KO mouse embryonic fibroblasts
T2 sequence (P34152 2-1052): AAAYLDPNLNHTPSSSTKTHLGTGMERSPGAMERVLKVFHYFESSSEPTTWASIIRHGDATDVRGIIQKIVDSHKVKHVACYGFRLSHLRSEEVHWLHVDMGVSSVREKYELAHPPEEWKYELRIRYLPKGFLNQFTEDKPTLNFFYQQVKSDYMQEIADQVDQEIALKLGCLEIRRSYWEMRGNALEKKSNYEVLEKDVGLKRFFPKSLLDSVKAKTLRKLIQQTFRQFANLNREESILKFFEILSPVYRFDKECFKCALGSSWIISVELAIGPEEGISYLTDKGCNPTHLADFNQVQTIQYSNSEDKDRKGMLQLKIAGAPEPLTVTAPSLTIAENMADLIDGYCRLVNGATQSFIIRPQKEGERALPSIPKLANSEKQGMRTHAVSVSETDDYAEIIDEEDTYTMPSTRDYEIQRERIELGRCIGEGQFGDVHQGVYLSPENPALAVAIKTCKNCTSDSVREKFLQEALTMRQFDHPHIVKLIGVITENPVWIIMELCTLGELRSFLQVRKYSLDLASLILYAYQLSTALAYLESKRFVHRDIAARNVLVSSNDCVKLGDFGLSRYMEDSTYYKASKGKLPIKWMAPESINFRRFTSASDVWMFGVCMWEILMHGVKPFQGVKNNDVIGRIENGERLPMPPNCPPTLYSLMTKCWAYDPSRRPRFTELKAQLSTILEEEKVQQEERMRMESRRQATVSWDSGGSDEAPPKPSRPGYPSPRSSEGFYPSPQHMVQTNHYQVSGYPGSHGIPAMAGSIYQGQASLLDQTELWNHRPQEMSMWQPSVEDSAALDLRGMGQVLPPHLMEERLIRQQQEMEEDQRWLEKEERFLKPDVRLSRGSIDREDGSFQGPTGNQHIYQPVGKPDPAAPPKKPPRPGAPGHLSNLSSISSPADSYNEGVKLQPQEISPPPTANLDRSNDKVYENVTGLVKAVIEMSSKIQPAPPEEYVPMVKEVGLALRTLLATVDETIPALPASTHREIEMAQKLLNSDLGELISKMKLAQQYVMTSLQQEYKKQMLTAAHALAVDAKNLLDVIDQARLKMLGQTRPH

FAK (GST-FAK, flag-FAK) [2] = target: T1, FAK (GST-FAK, flag-FAK); assay: affinity resin pull-down of purified protein, western blot; format: binding; details: immobilised 5-PCP-InsP5 resin; 4 °C overnight; also endogenous protein from HUVEC lysate; free 5-PCP (10 μM) with 5-InsP7 (5 μM) in a FAK dimerization competition assay
p34 (flag-p34) = target: T3, p34 (flag-p34) (Homo sapiens, UniProt O15144); assay: as above; format: binding; details: immobilised 5-PCP-InsP5 resin; 4 °C overnight; also endogenous protein from HUVEC lysate
T3 construct: gene ARPC2; tag kept; endogenous HUVEC protein also pulled down

coronin (GST-coronin) = target: T4, coronin (GST-coronin) (Homo sapiens, UniProt Q9BR76); assay: as above; format: binding; details: immobilised 5-PCP-InsP5 resin; 4 °C overnight; also endogenous protein from HUVEC lysate
T4 construct: gene CORO1B; GST-fused coronin produced in HEK293 cells, eluted with glutathione; tag kept; endogenous HUVEC protein also pulled down
T4 sequence (Q9BR76 whole entry, the tested form may be a part): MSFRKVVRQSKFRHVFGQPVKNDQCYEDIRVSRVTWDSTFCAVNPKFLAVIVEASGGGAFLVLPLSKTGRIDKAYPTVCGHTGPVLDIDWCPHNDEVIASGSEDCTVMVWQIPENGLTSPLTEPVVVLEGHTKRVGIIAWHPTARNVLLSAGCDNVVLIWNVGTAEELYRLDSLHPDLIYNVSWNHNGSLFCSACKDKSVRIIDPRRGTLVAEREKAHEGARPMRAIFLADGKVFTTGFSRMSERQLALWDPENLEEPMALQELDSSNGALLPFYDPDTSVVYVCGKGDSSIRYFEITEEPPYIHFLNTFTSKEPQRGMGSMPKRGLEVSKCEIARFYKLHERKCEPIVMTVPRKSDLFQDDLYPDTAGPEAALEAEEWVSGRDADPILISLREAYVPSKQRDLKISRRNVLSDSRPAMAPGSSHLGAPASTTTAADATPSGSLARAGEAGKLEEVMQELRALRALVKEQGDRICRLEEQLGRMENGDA

Structure (SMILES)	block of 5-InsP7-mediated FAK dimerization (FAK (GST-FAK, flag-FAK) [1])	affinity resin pull-down from cell lysate, western blot (endogenous FAK (MEF))	affinity resin pull-down of purified protein, western blot (FAK (GST-FAK, flag-FAK) [2])	affinity resin pull-down of purified protein, western blot (p34 (flag-p34))	affinity resin pull-down of purified protein, western blot (coronin (GST-coronin))
O=C(N[C@@H]1[C@@H](OP(=O)(O)O)[C@H](OP(=O)(O)O)[C@H](OP(=O)(O)O)[C@H](OP(=O)(O)O)[C@H]1OP(=O)(O)O)C(F)(F)P(=O)(O)O [5-PCF2Am-InsP5]	5-PCP and CF2 compete with 5-InsP7 to block 5-InsP7-mediated FAK dimer formation	–	–	–	–
O=P(O)(O)CP(=O)(O)O[C@H]1[C@H](OP(=O)(O)O)[C@@H](OP(=O)(O)O)[C@@H](OP(=O)(O)O)[C@@H](OP(=O)(O)O)[C@@H]1OP(=O)(O)O [5-PCP-InsP5]	–	5-PCP resin pulls down endogenous FAK in WT and IP6K1 KO MEF cells	5-PCP resin pulls down purified full length (FL) FAK and FAK FERM domain	pulls down purified p34 and coronin in an in vitro protein binding assay	pulls down purified p34 and coronin in an in vitro protein binding assay
